Data from publication PMC4885109, “Rapid Discovery and Structure–Activity Relationships of Pyrazolopyrimidines That Potently Suppress Breast Cancer Cell Growth via SRC Kinase Inhibition with Exceptional Selectivity over ABL Kinase” (Journal of Medicinal Chemistry, 2016).
Read-outs that look alike come from different tables or passages of the source.

How the values were obtained:
MCF7 cells [1] = assay: Dose-response viability assay (PrestoBlue), MCF7; format: cell-based; conditions: Homo sapiens, MCF7, 120 h; 5 d, PrestoBlue cell viability
FRK/PTK5 = FRK/PTK5 (Homo sapiens, UniProt P42685); assay: biochemical
MCF7 cells [2] = assay: Time-lapse cell growth assay (IncuCyte ZOOM); format: cell-based, human; conditions: for antiproliferative mode of action by time-lapse imaging: 1–100 μM
LYN = LYN (Homo sapiens, UniProt P07948); assay: biochemical
LCK = LCK (Homo sapiens, UniProt P06239); assay: Kinase screening assay, 33P radioisotope (Reaction Biology); format: biochemical; conditions: recombinant kinase, 10 μM ATP
FGR = FGR (Homo sapiens, UniProt P09769); assay: as above; format: biochemical
HCK = HCK (Homo sapiens, UniProt P08631); assay: biochemical
MDA-MB-231 cells [3] = assay: Dose-response viability assay (PrestoBlue), MDA-MB-231; format: cell-based, human; conditions: for decrease in antiproliferative activity relative to 11a: MDA-MB-231
MDA-MB-231 cells [4] = assay: cells; conditions: Homo sapiens, MDA-MB-231, 24 h, read-out: IC50, MDA-MB-231 Cell Migration After 24h
[5] = system: Tg(brn3c:mGFP) zebrafish embryos; format: in vivo; conditions: 1–10 μM (compatible with embryo survival)
[6] = cited from earlier work; for % F / Cmax / Tmax: PO
[7] = cited from earlier work
BLK = BLK (Homo sapiens, UniProt P51451); assay: biochemical
ABL = ABL (Homo sapiens, UniProt P00519); assay: Kinase screening assay, 33P radioisotope (Reaction Biology)
[8] = system: SYF murine embryonic fibroblasts (SRC-/-, YES-/-, FYN-/-); assay: Dose-response proliferation study in SYF cells; format: cell-based, mouse; conditions: compared with dasatinib
in vitro [9] = conditions: mouse, cryopreserved pooled primary hepatocytes
in vitro [10] = conditions: human, cryopreserved pooled primary hepatocytes
[11] = human, rat, 24 h
SRC = SRC (Homo sapiens, UniProt P12931); assay: Kinase screening assay, 33P radioisotope (Reaction Biology)
CYP2D6 = CYP2D6 (Homo sapiens, UniProt P10635); conditions: 10 μM
CYP2C9 = CYP2C9 (Homo sapiens, UniProt P11712); conditions: 10 μM
CYP3A4 = CYP3A4 (Homo sapiens, UniProt P08684); conditions: 10 μM
[12] = system: phospho-SRC^Y416 and phospho-FAK in MDA-MB-231 cells
in vivo = conditions: female, CD1, mouse, blood/plasma, 10 mg/kg
CYP2C19 = CYP2C19 (Homo sapiens, UniProt P33261); conditions: 10 μM
physchem = conditions: pH 7.4
MCF7 cells [13] = system: MCF7 cells
CYP1A2 = target: T1, CYP1A2 (Homo sapiens, UniProt P05177); conditions: 10 μM
T1 sequence (P05177 1-516): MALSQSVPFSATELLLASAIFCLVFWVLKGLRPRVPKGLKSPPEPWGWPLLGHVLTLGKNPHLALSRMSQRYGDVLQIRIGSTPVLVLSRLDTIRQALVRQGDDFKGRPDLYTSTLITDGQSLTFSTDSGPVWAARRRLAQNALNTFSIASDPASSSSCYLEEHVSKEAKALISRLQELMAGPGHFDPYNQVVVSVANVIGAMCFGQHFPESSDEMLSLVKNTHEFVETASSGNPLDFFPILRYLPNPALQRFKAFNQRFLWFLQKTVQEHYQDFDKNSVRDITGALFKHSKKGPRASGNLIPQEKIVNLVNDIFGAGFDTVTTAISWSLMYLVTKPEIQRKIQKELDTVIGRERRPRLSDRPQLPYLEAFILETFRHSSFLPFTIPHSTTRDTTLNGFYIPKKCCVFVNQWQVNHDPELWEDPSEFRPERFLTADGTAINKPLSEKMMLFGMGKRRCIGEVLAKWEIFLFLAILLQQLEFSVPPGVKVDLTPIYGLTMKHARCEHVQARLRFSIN

[14] = recombinant kinase, 10 μM ATP, read-out: IC50 (FGR)
[15] = 5 mg/kg ref Kamath et al., 2008

LCK, sequence (P06239 whole entry): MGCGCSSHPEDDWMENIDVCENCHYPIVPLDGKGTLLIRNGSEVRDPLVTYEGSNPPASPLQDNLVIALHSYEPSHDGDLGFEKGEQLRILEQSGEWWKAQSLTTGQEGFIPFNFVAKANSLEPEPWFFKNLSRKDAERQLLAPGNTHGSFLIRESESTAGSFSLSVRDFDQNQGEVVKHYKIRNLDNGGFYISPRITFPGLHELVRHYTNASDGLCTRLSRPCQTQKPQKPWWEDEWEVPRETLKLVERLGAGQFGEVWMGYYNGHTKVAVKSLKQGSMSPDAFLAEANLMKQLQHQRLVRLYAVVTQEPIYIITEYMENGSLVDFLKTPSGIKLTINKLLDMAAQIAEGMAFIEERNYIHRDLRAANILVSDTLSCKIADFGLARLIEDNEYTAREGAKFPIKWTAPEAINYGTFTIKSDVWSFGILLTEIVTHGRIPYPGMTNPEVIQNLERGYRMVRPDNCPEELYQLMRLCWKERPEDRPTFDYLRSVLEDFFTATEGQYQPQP
FRK/PTK5, sequence (P42685 whole entry): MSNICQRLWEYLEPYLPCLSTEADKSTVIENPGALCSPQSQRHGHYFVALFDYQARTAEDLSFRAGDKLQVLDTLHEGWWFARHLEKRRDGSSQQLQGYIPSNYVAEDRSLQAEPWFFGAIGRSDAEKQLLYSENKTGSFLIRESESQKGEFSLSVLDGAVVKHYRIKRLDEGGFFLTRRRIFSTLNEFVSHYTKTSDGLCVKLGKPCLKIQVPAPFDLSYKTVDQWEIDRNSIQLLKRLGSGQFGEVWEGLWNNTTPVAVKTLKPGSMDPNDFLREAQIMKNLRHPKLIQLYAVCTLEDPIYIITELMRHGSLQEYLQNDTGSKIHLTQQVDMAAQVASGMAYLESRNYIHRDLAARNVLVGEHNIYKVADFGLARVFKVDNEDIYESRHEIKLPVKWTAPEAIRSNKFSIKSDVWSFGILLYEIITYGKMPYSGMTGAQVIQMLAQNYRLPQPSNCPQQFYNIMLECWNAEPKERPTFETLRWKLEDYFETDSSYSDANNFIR
FGR, sequence (P09769 whole entry): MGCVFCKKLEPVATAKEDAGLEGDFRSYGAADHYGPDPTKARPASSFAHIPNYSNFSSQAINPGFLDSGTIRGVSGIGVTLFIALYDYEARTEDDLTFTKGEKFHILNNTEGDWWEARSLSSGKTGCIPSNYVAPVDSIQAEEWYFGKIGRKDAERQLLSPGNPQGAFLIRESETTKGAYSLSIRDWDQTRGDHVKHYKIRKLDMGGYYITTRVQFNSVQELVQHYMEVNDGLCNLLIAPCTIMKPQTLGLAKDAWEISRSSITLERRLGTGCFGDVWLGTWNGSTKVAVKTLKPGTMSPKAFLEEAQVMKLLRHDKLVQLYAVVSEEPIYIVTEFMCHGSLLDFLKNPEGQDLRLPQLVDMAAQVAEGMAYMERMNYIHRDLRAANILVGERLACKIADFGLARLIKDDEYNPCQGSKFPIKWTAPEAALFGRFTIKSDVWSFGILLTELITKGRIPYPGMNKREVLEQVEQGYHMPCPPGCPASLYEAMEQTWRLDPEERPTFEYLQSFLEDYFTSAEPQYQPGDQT
HCK, sequence (P08631 whole entry): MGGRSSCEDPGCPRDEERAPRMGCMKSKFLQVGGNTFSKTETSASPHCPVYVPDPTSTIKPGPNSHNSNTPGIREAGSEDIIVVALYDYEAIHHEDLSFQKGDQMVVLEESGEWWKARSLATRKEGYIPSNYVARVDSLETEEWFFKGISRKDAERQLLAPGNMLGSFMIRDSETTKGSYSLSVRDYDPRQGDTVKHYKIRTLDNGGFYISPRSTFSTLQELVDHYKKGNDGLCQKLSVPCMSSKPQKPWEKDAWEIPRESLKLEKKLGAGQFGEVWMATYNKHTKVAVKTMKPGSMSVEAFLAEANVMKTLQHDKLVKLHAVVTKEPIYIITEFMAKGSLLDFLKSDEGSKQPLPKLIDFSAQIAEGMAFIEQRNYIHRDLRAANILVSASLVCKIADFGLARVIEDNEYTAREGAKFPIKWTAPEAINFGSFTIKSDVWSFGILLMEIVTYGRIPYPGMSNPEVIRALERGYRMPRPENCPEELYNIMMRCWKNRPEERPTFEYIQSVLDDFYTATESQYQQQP
LYN, sequence (P07948 whole entry): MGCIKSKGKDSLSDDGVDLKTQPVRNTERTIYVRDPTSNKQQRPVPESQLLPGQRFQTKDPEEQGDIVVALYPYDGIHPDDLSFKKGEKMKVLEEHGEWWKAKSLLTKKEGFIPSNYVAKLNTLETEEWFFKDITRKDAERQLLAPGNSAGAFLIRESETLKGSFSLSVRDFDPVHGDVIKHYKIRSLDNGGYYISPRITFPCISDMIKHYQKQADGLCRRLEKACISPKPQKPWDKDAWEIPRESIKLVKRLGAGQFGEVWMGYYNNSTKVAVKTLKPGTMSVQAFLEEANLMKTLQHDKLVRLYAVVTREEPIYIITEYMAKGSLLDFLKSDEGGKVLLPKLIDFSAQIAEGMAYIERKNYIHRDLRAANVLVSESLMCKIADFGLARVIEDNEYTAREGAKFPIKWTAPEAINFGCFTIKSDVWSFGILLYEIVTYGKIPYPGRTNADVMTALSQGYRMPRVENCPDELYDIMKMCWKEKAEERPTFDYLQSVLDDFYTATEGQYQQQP
BLK, sequence (P51451 whole entry): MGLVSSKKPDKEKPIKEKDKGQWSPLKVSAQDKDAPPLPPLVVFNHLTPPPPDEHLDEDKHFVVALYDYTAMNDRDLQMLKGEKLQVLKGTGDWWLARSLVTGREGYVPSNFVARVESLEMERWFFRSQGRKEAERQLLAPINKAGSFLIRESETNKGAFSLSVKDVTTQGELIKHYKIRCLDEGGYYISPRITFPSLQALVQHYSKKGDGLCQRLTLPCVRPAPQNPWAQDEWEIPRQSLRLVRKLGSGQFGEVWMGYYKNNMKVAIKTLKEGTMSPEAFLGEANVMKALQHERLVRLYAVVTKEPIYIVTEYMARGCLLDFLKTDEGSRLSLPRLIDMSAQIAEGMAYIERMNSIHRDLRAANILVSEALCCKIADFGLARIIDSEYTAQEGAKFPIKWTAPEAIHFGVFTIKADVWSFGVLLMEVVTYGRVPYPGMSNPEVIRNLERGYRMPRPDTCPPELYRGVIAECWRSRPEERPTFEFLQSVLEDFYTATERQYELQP
CYP2C19, sequence (P33261 whole entry): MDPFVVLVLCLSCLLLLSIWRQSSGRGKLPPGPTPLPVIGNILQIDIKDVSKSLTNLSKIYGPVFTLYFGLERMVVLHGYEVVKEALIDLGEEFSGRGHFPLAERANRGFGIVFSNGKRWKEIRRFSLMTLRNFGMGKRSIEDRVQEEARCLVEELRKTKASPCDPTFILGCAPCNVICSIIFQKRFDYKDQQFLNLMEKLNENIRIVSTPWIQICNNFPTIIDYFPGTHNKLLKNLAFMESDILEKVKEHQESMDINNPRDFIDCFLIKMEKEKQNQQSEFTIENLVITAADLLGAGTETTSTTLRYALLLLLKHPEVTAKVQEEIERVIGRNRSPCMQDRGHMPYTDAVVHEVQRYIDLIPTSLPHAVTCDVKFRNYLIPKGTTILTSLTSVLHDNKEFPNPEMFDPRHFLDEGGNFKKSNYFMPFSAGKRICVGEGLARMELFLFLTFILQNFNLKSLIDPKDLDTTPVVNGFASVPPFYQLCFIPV
SRC, sequence (P12931 whole entry): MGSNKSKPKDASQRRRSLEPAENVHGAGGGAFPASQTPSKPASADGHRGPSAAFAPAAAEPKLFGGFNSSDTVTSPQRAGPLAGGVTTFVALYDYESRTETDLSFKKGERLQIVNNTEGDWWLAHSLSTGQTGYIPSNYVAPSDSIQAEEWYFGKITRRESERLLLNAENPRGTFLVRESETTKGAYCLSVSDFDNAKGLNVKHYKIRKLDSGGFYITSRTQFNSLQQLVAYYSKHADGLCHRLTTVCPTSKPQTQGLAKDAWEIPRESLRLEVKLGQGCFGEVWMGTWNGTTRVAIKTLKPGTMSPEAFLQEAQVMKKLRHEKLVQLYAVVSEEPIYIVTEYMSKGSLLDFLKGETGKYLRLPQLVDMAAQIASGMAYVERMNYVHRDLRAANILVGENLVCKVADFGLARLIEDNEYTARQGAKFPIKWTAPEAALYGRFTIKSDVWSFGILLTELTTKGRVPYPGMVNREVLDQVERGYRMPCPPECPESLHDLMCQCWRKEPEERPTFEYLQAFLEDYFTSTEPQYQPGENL
CYP2D6, sequence (P10635 whole entry): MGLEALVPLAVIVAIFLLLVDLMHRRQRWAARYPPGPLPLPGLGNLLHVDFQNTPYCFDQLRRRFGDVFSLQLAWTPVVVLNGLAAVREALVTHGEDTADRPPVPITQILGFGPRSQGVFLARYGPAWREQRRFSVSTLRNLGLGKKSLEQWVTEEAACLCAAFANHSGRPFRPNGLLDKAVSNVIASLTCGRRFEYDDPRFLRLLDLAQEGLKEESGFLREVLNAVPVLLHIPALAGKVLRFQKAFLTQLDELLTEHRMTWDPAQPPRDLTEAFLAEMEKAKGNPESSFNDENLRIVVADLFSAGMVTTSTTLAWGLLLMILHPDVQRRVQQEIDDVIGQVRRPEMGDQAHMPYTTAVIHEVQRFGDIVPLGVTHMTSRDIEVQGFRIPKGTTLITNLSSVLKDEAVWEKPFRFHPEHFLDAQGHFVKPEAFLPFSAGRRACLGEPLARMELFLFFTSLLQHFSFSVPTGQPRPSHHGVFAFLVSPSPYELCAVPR

Molecule COc1cc(-c2nn(CCN3CCC(N(C)C)CC3)c3ncnc(N)c23)ccc1NC(=O)CCc1ccccc1 [12k, N-[4-[4-amino-1-[2-[4-(dimethylamino)-1-piperidyl]ethyl]pyrazolo[3,4-d]pyrimidin-3-yl]-2-methoxy-phenyl]-3-phenyl-propanamide] has an EC50 (MCF7 cells [1]) of 7.04 µM.

With CCOC(Cn1nc(-c2cnc3[nH]ccc3c2)c2c(N)ncnc21)OCC [8d, 1-(2,2-Diethoxyethyl)-3-(1H-pyrrolo[2,3-b]pyridin-5-yl)pyrazolo[3,4-d]pyrimidin-4-amine] the IC50 (FRK/PTK5) was 2.69 µM, the “antiproliferative mode of action by time-lapse imaging” value (MCF7 cells [2]) was “halted cell division” and the IC50 (LYN) was 2.31 µM. It also gave an IC50 (LCK) of 8.61 µM, an IC50 (FGR; [14]) of 2.13 µM and an IC50 (HCK) of 6.77 µM.

With Cc1ccc(-c2nn(CCN3CCCCC3)c3ncnc(N)c23)cc1 [7a] the EC50 (MCF7 cells [1]) was 48.8 µM.

With CN(C)C1CCN(CCn2nc(-c3ccc(NC(=O)OC(C)(C)C)nc3)c3c(N)ncnc32)CC1 [12u] the EC50 (MDA-MB-231 cells [3]; read-out: EC50 (MDA-MB-231), 5 d, PrestoBlue cell viability) was 16.7 µM.

For Cc1nc(Nc2ncc(C(=O)Nc3c(C)cccc3Cl)s2)cc(N2CCN(CCO)CC2)n1.O [dasatinib], the IC50 (MDA-MB-231 cells [4]) is given as 0.0084 µM, the neuromast migration [5] is given as “did not inhibit the migration of neuromasts” and the T1/2 ([6]; IV, 10 mg/kg, mice ref Kamath et al., 2008 (58)) is given as 0.9 h. For the same molecule, the CL ([6]; IV, 10 mg/kg, mice ref Kamath et al., 2008) was 61.7 mL/min/kg, the “% F” value [6, 15] was 17% and the Cmax [6, 15] was 104 ng/mL. For the same molecule, the Tmax [6, 15] was 2 h, the “% F” value ([6]; 5 mg/kg ref Luo et al., 2006) was 45% and the Cmax ([6]; 5 mg/kg ref Luo et al., 2006) was 58 ng/mL. The Tmax ([6]; 5 mg/kg ref Luo et al., 2006) was 1 h, the solubility in water ([7]; pH = 2.6 ref 56) was 18 mg/mL and the solubility in water ([7]; pH = 7 ref 56) was less than 0.001 mg/mL.

With Cc1ccc(-c2nn(CCN3CCC(CCN(C)C)CC3)c3ncnc(N)c23)cc1 [7k] the IC50 (FRK/PTK5) was 3.7 µM, the IC50 (LYN) was 2.51 µM and the IC50 (LCK) was 4.34 µM. The IC50 (FGR; [14]) was 0.601 µM and the IC50 (HCK) was 11.6 µM.

With COc1cc(-c2nn(CCN3CCC(N(C)C)CC3)c3ncnc(N)c23)ccc1N [12g] the EC50 (MCF7 cells [1]) was 4.93 µM.

In the case of Cc1ccc(-c2nn(C(C)(C)C)c3ncnc(N)c23)cc1 [PP1, reference compound], the IC50 (FGR) is reported as 0.0076 µM.

For Cc1ccc(-c2nn(CCN3CCC(CN(C)C)CC3)c3ncnc(N)c23)cc1 [7j], the IC50 (FRK/PTK5) was 1.63 µM, the IC50 (LYN) was 1.07 µM and the IC50 (BLK) was 2.85 µM. It also gave an IC50 (LCK) of 1.54 µM and an IC50 (HCK) of 6.01 µM.

With COc1cc(-c2ccn(CCN3CCC(N(C)C)CC3)n2)ccc1NC(=O)OC(C)(C)C [12f] the “decrease in antiproliferative activity relative to 11a” value (MDA-MB-231 cells [3]) was greater than 3000 fold.

In the case of Cc1ccc(-c2nn(CCN3CCN(C)CC3)c3ncnc(N)c23)cc1 [7d], the “cell proliferation (% confluence over time)” value (MCF7 cells [2]; single dose 100 μM, 5 d, time-lapse imaging) is reported as “strong inhibition of cell proliferation”.

For COc1cc(-c2nn(CCN3CCC(CN(C)C)CC3)c3ncnc(N)c23)ccc1NC(=O)OC(C)(C)C [11b], the IC50 (ABL) was 0.189 µM and the “antiproliferative activity in SYF cells” value [8] was “significantly less antiproliferative activity in SYF cells than dasatinib”.

Cc1ccc(-c2nn(CCN3CCC(N(C)C)CC3)c3ncnc(N)c23)cc1 [7i] gave an IC50 (BLK) of 1.54 µM and an IC50 (HCK) of 1.52 µM.

With O=c1ccc2ccc(O)cc2o1 [umbelliferone, reference compound] the half-life at 3 µM (in vitro [9]) was 0.0233 h, the hepatocyte CLint at 3 µM (in vitro [9]) was 983 µL/min/1e6 cells and the half-life at 3 µM (in vitro [10]) was 9.7 min. It also gave a hepatocyte CLint at 3 µM (in vitro [10]) of 150 µL/min/1e6 cells.

For CC(=O)CC(c1ccccc1)c1c(O)c2ccccc2oc1=O (stereo not drawn) [Warfarin], the plasma protein bound [11] was 99–100%.

With CN(C)C1CCN(CCn2nc(-c3ccc(NC(=O)OC(C)(C)C)c(O)c3)c3c(N)ncnc32)CC1 [12s] the “decrease in SRC inhibitory activity relative to 11a” value (SRC) was greater than 200 fold and the “decrease in antiproliferative activity relative to 11a” value (MDA-MB-231 cells [3]) was greater than 200 fold.

In the case of COc1cc(-c2nn(CCN3CCC(N(C)C)CC3)c3ncnc(N)c23)ccc1NC(=O)OC(C)(C)C [11a, tert-Butyl N-[4-[4-amino-1-[2-[4-(dimethylamino)-1-piperidyl]ethyl]pyrazolo[3,4-d]pyrimidin-3-yl]-2-methoxy-phenyl]carbamate], the “inhibition of CYP2D6” value (CYP2D6) is reported as no more than 0%, the “inhibition of CYP2C9” value (CYP2C9) is reported as no more than 0% and the “inhibition of CYP3A4” value (CYP3A4) is reported as no more than 0%. The half-life at 3 µM (in vitro [9]) was 1.83 h, the hepatocyte CLint at 3 µM (in vitro [9]) was 12.5 µL/min/1e6 cells and the “concentration with complete inhibition of phosphorylation of SRC and FAK” value [12] was 100 nM. The AUC (in vivo; iv) was 2070 ng·h/mL, the clearance (in vivo; iv) was 72.3 mL/min/kg and the AUC (in vivo; po) was 530 ng·h/mL. For the same molecule, the Cmax (in vivo; po) was 100 ng/mL, the Tmax (in vivo; po) was 2 h and the “inhibition of CYP2C19” value (CYP2C19) was no more than 0%. The solubility (physchem) was greater than 100 mg/mL, the “concentration giving significant apoptotic cell death (caspase 3/7 activity)” value (MCF7 cells [13]) was no less than 100 nM and the hepatocyte CLint at 3 µM (in vitro [10]) was 1.84 µL/min/1e6 cells. For the same molecule, the “inhibition of CYP1A2” value (CYP1A2) was 24.54%.

For CN(C)CC1CCN(CCn2nc(-c3cnc4[nH]ccc4c3)c3c(N)ncnc32)CC1 [9d, 1-[2-[4-(Dimethylaminomethyl)-1-piperidyl]ethyl]-3-(1H-pyrrolo[2,3-b]pyridin-5-yl)pyrazolo[3,4-d]pyrimidin-4-amine], the “antiproliferative mode of action by time-lapse imaging” value (MCF7 cells [2]) was “induced cell death”.
